{"source": "patent US8008319B2", "about": "“Treatment of colorectal polyps with imidazoquinoline derivatives” (Meda Pharma GmbH & Co. KG, priority 2008, dated 2011)", "key": {"[1]": {"system": "p53 expression in Caco-2 cells", "assay": "p53 mRNA expression in Caco-2 cells by quantitative real-time RT-PCR", "format": "cell-based", "experimental": "Imiquimod was dissolved in dimethyl sulfoxide (DMSO). Stock concentration was 10 mg/ml. From these stocks stepwise dilutions were prepared. […] The final concentration of DMSO was 0.1%.\nThe colorectal adenocarcinoma cell line Caco-2 was obtained from ATCC [American Type Culture Collection], Wesel, Germany. The cells were plated in 24-well plates (BD Bioscience, Heidelberg, Germany). The cells were cultured in DMEM supplemented with 10% heat-inactivated foetal bovine serum and 10% non essential amino acids in a humidified atmosphere containing 5% CO2 at 37° C. When confluent, the cells were washed and resuspended in serum-free Dulbecco's Modified Eagle Medium (DMEM) at 10^6 cells ml^−1. […]\nRNA was prepared from frozen lysates using RNeasy, Qiagen (Hilden, Germany). One-tube Reverse Transcriptase-Polymerase Chain Reaction (RT-PCR) was performed using Quantitect Probe RT-PCR Kit from QIAGEN (Hilden, Germany). Expression of p53 was determined in relation to beta-actin by real time RT-PCR using SYBR Green assays on an ABI Prism 7900. […] Quantity of mRNA was calculated using […] method. For each RT-PCR the threshold cycle (CT) was determined, being defined as the cycle at which the fluorescence exceeds 10 times the standard deviation of the mean baseline emission for cycles 3 to 10. β-actin was used as a housekeeping gene to normalize mRNA levels: Ct (Parameter)−Ct (β-actin)=ΔCt (Parameter). […]"}, "MC-26 colon carcinoma": {"system": "MC-26 colon carcinoma", "settings": "mice; oral treatment; cited from earlier work"}, "p53": {"system": "p53", "settings": "patients with Actinic Keratoses; under imiquimod therapy; cited from earlier work"}}, "data": [{"compound": "CC(C)Cn1cnc2c(N)nc3ccccc3c21", "note": "[imiquimod, 1-(2-methylpropyl)-1H-imidazo[4,5-c]quinolin-4-amine]", "values": [{"measurement": "statistical significance of increase in p53 mRNA levels", "setting": "[1]; 10 and 100 μM imiquimod, one-way ANOVA with Dunnett's post-hoc", "value": "reached statistical significance"}, {"measurement": "p53 mRNA expression (relative to beta-actin and vehicle control)", "setting": "[1]; concentrations up to 100 μM, FIG. 1", "value": "increases p53 mRNA expression dose dependently"}, {"measurement": "development of MC-26 colon carcinoma", "setting": "MC-26 colon carcinoma", "value": "significantly inhibited the development of MC-26 colon carcinoma"}, {"measurement": "gene expression for p53", "setting": "p53", "value": "no differences in gene expression for p53 were found"}]}]}
